According to patent US12110294B2, “CD73 compounds” (Gilead Sciences, Inc., priority 2020, dated 2024):

Tests used:
[1] = molecular target: T1, CD73 activity in MDA-MB-231-GFP cells (Homo sapiens, UniProt P21589); assay: MDA-MB-231 Cell Based CD73 Activity Assay (DMEM); settings: 3000 cells per well, DMEM medium with 10% human plasma, overnight compound treatment, AMP 200 uM
T1 construct: endogenous in cells; host or cells: MDA-MB-231-GFP cells
T1 sequence (P21589 27-549): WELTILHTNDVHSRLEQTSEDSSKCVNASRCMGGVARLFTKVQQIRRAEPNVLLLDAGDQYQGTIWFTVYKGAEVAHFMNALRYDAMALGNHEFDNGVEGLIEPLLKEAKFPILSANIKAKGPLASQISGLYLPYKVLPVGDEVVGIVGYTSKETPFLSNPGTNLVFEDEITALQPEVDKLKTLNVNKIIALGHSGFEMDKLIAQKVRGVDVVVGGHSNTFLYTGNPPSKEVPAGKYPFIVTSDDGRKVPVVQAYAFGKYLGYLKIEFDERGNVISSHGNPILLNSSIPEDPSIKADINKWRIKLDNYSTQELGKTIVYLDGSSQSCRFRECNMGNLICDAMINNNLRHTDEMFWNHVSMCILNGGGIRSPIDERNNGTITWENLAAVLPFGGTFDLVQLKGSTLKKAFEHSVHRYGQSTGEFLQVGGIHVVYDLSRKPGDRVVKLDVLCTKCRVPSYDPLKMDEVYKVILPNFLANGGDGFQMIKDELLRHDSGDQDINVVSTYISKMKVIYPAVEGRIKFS

[2] = molecular target: T2, CD73 (Homo sapiens, UniProt P21589); assay type: biochemical; settings: 1 mM NaH2PO4 in enzyme buffer, final AMP 15 uM, final CD73 0.3 nM
T2 construct: purchased R&D system
T2 sequence (P21589 27-549): T1 sequence (P21589 27-549)

| EC50 [1] | IC50 [2] | SMILES |
| --- | --- | --- |
| 30.2 nM | 11 nM | CN(C)C(=O)c1cn2nc(-c3c[nH]c(=O)[nH]c3=O)cc([C@H]3C[C@@H]3c3ccc(F)cc3)c2n1 (racemic) [Example 197, 6-(2,4-dioxo-1H-pyrimidin-5-yl)-8-[(1S,2S)-2-(4-fluorophenyl)cyclopropyl]-N,N-dimethyl-imidazo[1,2-b]pyridazine-2-carboxamide] |
| 809 nM | > 250 nM | O=C(c1cn2nc(-c3c[nH]c(=O)[nH]c3=O)cc([C@H]3C[C@@H]3c3ccc(F)cc3)c2n1)N1C[C@@H](F)[C@@H](F)C1 (racemic) [Example 200, 5-[2-[(3S,4R)-3,4-difluoropyrrolidine-1-carbonyl]-8-[(1S,2S)-2-(4-fluorophenyl)cyclopropyl]imidazo[1,2-b]pyridazin-6-yl]-1H-pyrimidine-2,4-dione] |
| 102 nM | 33.6 nM | O=c1[nH]cc(-c2cc([C@H]3C[C@@H]3c3ccnc(C(F)(F)F)n3)c3nccn3n2)c(=O)[nH]1 (racemic) [Example 271, 5-(8-((2S,2S)-2-(2-(trifluoromethyl)pyrimidin-4-yl)cyclopropyl)imidazo[1,2-b]pyridazin-6-yl)pyrimidine-2,4(1H,3H)-dione] |
| 79 nM | 3.77 nM | O=c1[nH]cc(-c2cc([C@H]3C[C@@H]3c3ccc(OC(F)(F)F)cc3)c3ncc(F)n3n2)c(=O)[nH]1 (racemic) [Example 277, 5-(3-fluoro-8-((2S,2S)-2-(4-(trifluoromethoxy)phenyl)cyclopropyl)imidazo[1,2-b]pyridazin-6-yl)pyrimidine-2,4(1H,3H)-dione] |
| 2.75 nM | 0.87 nM | NC(=O)c1ccc([C@H]2C[C@@H]2c2cc(-c3c[nH]c(=O)[nH]c3=O)nn3ccnc23)cc1 (racemic) [Example 283, 4-((2S,2S)-2-(6-(2,4-dioxo-1,2,3,4-tetrahydropyrimidin-5-yl)imidazo[1,2-b]pyridazin-8-yl)cyclopropyl)benzamide] |
| 2.53 nM | 2.72 nM | O=c1[nH]cc(-c2cc([C@H]3C[C@@H]3c3ccc4cnn(CCC(F)(F)F)c4c3)c3nccn3n2)c(=O)[nH]1 (racemic) [Example 361, 5-(8-((1S,2S)-2-(1-(3,3,3-trifluoropropyl)-1H-indazol-6-yl)cyclopropyl)imidazo[1,2-b]pyridazin-6-yl)pyrimidine-2,4(1H,3H)-dione] |
| 1 nM | 2.98 nM | N#Cc1nn(CC(F)(F)F)c2cc([C@H]3C[C@@H]3c3cc(-c4c[nH]c(=O)[nH]c4=O)nn4ccnc34)ccc12 (racemic) [Example 362, 6-((1S,2S)-2-(6-(2,4-dioxo-1,2,3,4-tetrahydropyrimidin-5-yl)imidazo[1,2-b]pyridazin-8-yl)cyclopropyl)-1-(2,2,2-trifluoroethyl)-1H-indazole-3-carbonitrile] |
| 32.8 nM | 7.62 nM | O=c1[nH]cc(-c2cc([C@H]3C[C@@H]3c3cnc(C(F)(F)F)s3)c3nccn3n2)c(=O)[nH]1 (racemic) [Example 365, 5-(8-((2S,2S)-2-(2-(trifluoromethyl)thiazol-5-yl)cyclopropyl)imidazo[1,2-b]pyridazin-6-yl)pyrimidine-2,4(1H,3H)-dione] |
| 67.6 nM | 17.5 nM | O=c1[nH]cc(-c2cc([C@H]3C[C@@H]3c3nc(C(F)(F)F)cs3)c3nccn3n2)c(=O)[nH]1 (racemic) [Example 367, 5-(8-((2S,2S)-2-(4-(trifluoromethyl)thiazol-2-yl)cyclopropyl)imidazo[1,2-b]pyridazin-6-yl)pyrimidine-2,4(1H,3H)-dione] |
| 5.89 nM | 1.98 nM | O=c1[nH]cc(-c2cc([C@H]3C[C@@H]3c3ccc(C(F)F)cn3)c3nccn3n2)c(=O)[nH]1 (racemic) [Example 379, 5-(8-((1S,2S)-2-(5-(difluoromethyl)pyridin-2-yl)cyclopropyl)imidazo[1,2-b]pyridazin-6-yl)pyrimidine-2,4(1H,3H)-dione] |
| 20 nM |  | N#Cc1ccc(F)c([C@H]2C[C@@H]2c2cc(-c3c[nH]c(=O)[nH]c3=O)nn3ccnc23)c1 (racemic) [Example 466, 3-((2S,2S)-2-(6-(2,4-dioxo-1,2,3,4-tetrahydropyrimidin-5-yl)imidazo[1,2-b]pyridazin-8-yl)cyclopropyl)-4-fluorobenzonitrile] |
| 13.3 nM |  | O=c1[nH]cc(-c2cc([C@H]3C[C@@H]3c3c(F)ccc(F)c3F)c3nccn3n2)c(=O)[nH]1 (racemic) [Example 468, 5-(8-((2S,2S)-2-(2,3,6-trifluorophenyl)cyclopropyl)imidazo[1,2-b]pyridazin-6-yl)pyrimidine-2,4(1H,3H)-dione] |
| 0.24 nM |  | O=c1[nH]cc(-c2cc([C@H]3C[C@@H]3c3cc4c(cn3)cnn4CC(F)(F)F)c3ncc(Cl)n3n2)c(=O)[nH]1 (racemic) [Example 471, 5-(3-chloro-8-((2S,2S)-2-(1-(2,2,2-trifluoroethyl)-1H-pyrazolo[4,3-c]pyridin-6-yl)cyclopropyl)imidazo[1,2-b]pyridazin-6-yl)pyrimidine-2,4(1H,3H)-dione] |
| 0.33 nM |  | CC1(C)C(=O)N(CC(F)(F)F)c2cc([C@H]3C[C@@H]3c3cc(-c4c[nH]c(=O)[nH]c4=O)nn4ccnc34)ncc21 (racemic) [Example 718, 5-[8-[(1S,2S)-2-[3,3-dimethyl-2-oxo-1-(2,2,2-trifluoroethyl)pyrrolo[3,2-c]pyridin-6-yl]cyclopropyl]imidazo[1,2-b]pyridazin-6-yl]-1H-pyrimidine-2,4-dione] |
| 2.52 nM |  | O=c1[nH]cc(-c2cc([C@H]3C[C@@H]3c3cc(OCC(F)(F)F)c4ncccc4c3)c3nccn3n2)c(=O)[nH]1 (racemic) [Example 732, 5-(8-((2S,2S)-2-(8-(2,2,2-trifluoroethoxy)quinolin-6-yl)cyclopropyl)imidazo[1,2-b]pyridazin-6-yl)pyrimidine-2,4(1H,3H)-dione] |
| 0.38 nM |  | O=C1N(CC2(F)CC2)c2cc([C@H]3C[C@@H]3c3cc(-c4c[nH]c(=O)[nH]c4=O)nn4c(F)cnc34)ccc2C12CC2 (racemic) [Example 735, 5-(3-fluoro-8-((2S,2S)-2-(1′-((1-fluorocyclopropyl)methyl)-2′-oxospiro[cyclopropane-1,3′-indolin]-6′-yl)cyclopropyl)imidazo[1,2-b]pyridazin-6-yl)pyrimidine-2,4(1H,3H)-dione] |
| 1.76 nM |  | O=C1N(CC(F)(F)F)c2cc([C@H]3C[C@@H]3c3cc(-c4c[nH]c(=O)[nH]c4=O)nn4ccnc34)c(F)cc2C12CC2 (racemic) [Example 748, 5-(8-((2S,2S)-2-(5′-fluoro-2′-oxo-1′-(2,2,2-trifluoroethyl)spiro[cyclopropane-1,3′-indolin]-6′-yl)cyclopropyl)imidazo[1,2-b]pyridazin-6-yl)pyrimidine-2,4(1H,3H)-dione] |
| 9.78 nM |  | O=C(c1ccc([C@H]2C[C@@H]2c2cc(-c3c[nH]c(=O)[nH]c3=O)nn3c(F)cnc23)cc1)N1CC(F)(F)C1 (single isomer, unassigned) [Example 313] |
| 17.9 nM |  | O=c1[nH]cc(-c2cc([C@H]3C[C@@H]3c3cnn(C(F)F)c3)c3ncc(F)n3n2)c(=O)[nH]1 (single isomer, unassigned) [Example 371] |
| 9.61 nM |  | O=c1[nH]cc(-c2cc([C@H]3C[C@@H]3c3ccc(OC(F)(F)F)cn3)c3nccn3n2)c(=O)[nH]1 (single isomer, unassigned) [Example 373] |
| 0.1 nM |  | O=C1N(CC(F)(F)F)c2cc([C@H]3C[C@@H]3c3cc(-c4c[nH]c(=O)[nH]c4=O)nn4ccnc34)ccc2C12CC2 (single isomer, unassigned) [Example 391] |
| 0.28 nM |  | O=C1N(CC(F)(F)F)c2cc([C@H]3C[C@@H]3c3cc(-c4c[nH]c(=O)[nH]c4=O)nn4c(Cl)cnc34)ccc2C12CC2 (single isomer, unassigned) [Example 740] |
| 0.68 nM |  | O=C1N(CC(F)(F)F)c2cc([C@H]3C[C@@H]3c3cc(-c4c[nH]c(=O)[nH]c4=O)nn4c(Cl)c(Cl)nc34)ccc2C12CC2 (single isomer, unassigned) [Example 741] |
|  | 6.41 nM | O=c1[nH]cc(-c2cc(N3CCC4(C3)CC4(F)F)c3nccn3n2)c(=O)[nH]1 (centres unmarked) [Example 192] |
|  | 3.03 nM | O=c1[nH]cc(-c2cc(N3CC(OCC(F)(F)F)C(F)(F)C3)c3nccn3n2)c(=O)[nH]1 (centres unmarked) [Example 203] |
|  | > 250 nM | COC(=O)[C@H]1[C@@H]2CN(c3cc(-c4c[nH]c(=O)[nH]c4=O)nn4ccnc34)C[C@@H]21 [Example 314, methyl (1R,5S,6r)-3-(6-(2,4-dioxo-1,2,3,4-tetrahydropyrimidin-5-yl)imidazo[1,2-b]pyridazin-8-yl)-3-azabicyclo[3.1.0]hexane-6-carboxylate] |
| 0.07 nM |  | O=c1[nH]cc(-c2cc([C@H]3C[C@@H]3c3cc4c(cn3)cnn4CC(F)(F)F)c3ncc(F)n3n2)c(=O)[nH]1 [Example 611, 5-(3-fluoro-8-((2S,2S)-2-(1-(2,2,2-trifluoroethyl)-1H-pyrazolo[4,3-c]pyridin-6-yl)cyclopropyl)imidazo[1,2-b]pyridazin-6-yl)pyrimidine-2,4(1H,3H)-dione] |
| 154 nM |  | O=c1[nH]cc(-c2cc(N3C[C@H]4CC[C@@H]3C4)c3nccn3n2)c(=O)[nH]1 [Example 642, 5-(8-((1R,4S)-2-azabicyclo[2.2.1]heptan-2-yl)imidazo[1,2-b]pyridazin-6-yl)pyrimidine-2,4(1H,3H)-dione] |
